Data as given in US20100210713A1, “REGENERATION AND SURVIVAL OF CARDIAC PROGENITORS AND CARDIOMYOCYTES WITH A STRETCH ACTIVATED TRANSCRIPTION FACTOR” (THE GENERAL HOSPITAL CORPORATION, priority 2009, published 2010).
Entries after “also recorded” stand apart in the source; their conditions may differ. Blank lines part the entries; values can stand above or below the molecule they belong to.

Experiments:
Creb312 [1] = assay: Formation of nuclear Creb312 in Ad.Creb312(FL)-transduced NRVM under biaxial mechanical stretch after pathway inhibition (immunoblot); assay type: cell-based, rat; conditions: NRVM with Ad.Creb312(FL), inhibitor 30 min prior to 10% pulsary (cyclic) biaxial stretch, Akt1/2 inhibitor 1 μM, SH6 10 μM, LY294002 10 μM, PD98059 25 μM, U0126 10 μM, SP600125 10 μM, PP2 1 μM, SB203580 25 μM, wortmannin 200 nM, FIG. 5
Procedure: Biaxial mechanical stretch experiments. Freshly isolated NRVM were seeded at 10^6 on fibronectin-coated silicon membranes and transduced with Ad.Creb312(FL) 48 h later. 2 days later, biaxial mechanical stretch experiments were carried out on devices as previously described (Ref, Andre Kleber paper) for indicated times. Cells were rinsed once in ice-cold PBS, harvested, lysed and processed for immunoblot. For inhibition experiments, NRVM were treated with chemical inhibitors for 30 min prior to stretching. All chemical inhibitors used were from Calbiochem except Akt1/2 inhibitor and wortmannin (Sigma). Concentrations used were: Akt1/2 inhibitor (1 μM), SH6 (10 μM), LY294002 (10 μM), PD98059 (25 μM), U0126 (10 μM), SP600125 (10 μM), PP2 (1 μM), SB203580 (25 μM), wortmannin (200 nM). […]
Immunoprecipitation and Immunoblot. For immunoprecipitation, 10 μg pcDNA3/3xFlag-Creb312(N) were transfected into COS7 cells with Fugene HD (Roche). 48 h later, cells were washed once with PBS, harvested and lysed in 50 mM Tris-HCl pH 7.4, 150 mM NaCl, 1% Triton X-100 and Complete Protease Inhibitor (Roche) on ice. After centrifugation at 13000 rpm, 30 min, 4C, the supernatant was used for subsequent experiments. Embryonic hearts of various stages were homogenized in ice-cold PBS with a Rotor-Stator Homogenizer, and nuclear extracts were prepared from the cell pellets using the NE-PER Nuclear and Cytoplasmic Extraction Reagents (Pierce). Protein concentrations were determined with the Protein Assay Dye Reagent (Bio-Rad). 1.8 mg 3× Flag-Creb312(N) protein extract and 25 μg heart nuclear extract were rotated with 40 μl anti-Flag M2 Affinity gel (Sigma) at 4C over night. Resins were washed twice each with 50 mM Tris-HCl pH 7.4, 150 mM NaCl with or without 0.1% Triton X-100, eluted with 15 μg 3× Flag peptide (Sigma), and 25 μl or 75 μl eluate were loaded on 10% SDS-polyacrylamide gels for subsequent immunoblot analysis. For immunoblots of mechanical stretch- or chemically treated-cardiomyocytes, 25 μg total cell extract were separated on 10% SDS-polyacrylamide gels. Primary antibodies used were: anti-Flag M2 (Sigma, 1:200), anti-HA (Bethyl, 1:4000), anti-Creb312 (1:2000), anti-phospho (Ser473)Akt (Cell Signaling, 1:1000), anti-phospho (Thr308)Akt (Cell Signaling, 1:1000), anti-Akt (Cell Signaling, 1:1000), anti-phospho p44/42 (Cell Signaling, 1:1000). Secondary antibodies (horseradish peroxidase-conjugated rabbit anti-mouse IgG or goat anti-rabbit IgG, Dako) were used at 1:10^5′ and immunoblots were developed with SuperSignal West Femto Substrate (Pierce).

Creb312 [2] = assay: Proteolytic cleavage of HA-tagged full-length Creb312 to the nuclear form in NRVM after chemical ER stressors or hypertrophic agonists (Western Blot, anti-HA); assay type: cell-based, rat
Procedure: Isolation of neonatal rat ventricular cardiomyocytes. All procedures described below were conducted according to the guidelines of the Harvard University Animal Care and Use Committee. Ventricular myocytes were isolated from 2 day-old Sprague Dawley rats as briefly described. Excised ventricular tissue was agitated in a 0.1% trypsin solution cooled to 4° C. for approximately 14 hours. Trypsinized ventricles were dissociated into their cellular constituents via serial exposure to a 0.1% solution of collagenase type II at 37° C. for 2 minutes. The myocyte portion of the cell population was enriched by passing the dissociated cell solution through a nylon mesh with 40 μm pores, and then pre-plating twice for 45 minutes each time. 10^6 isolated myocytes were seeded onto silicon membranes coated with fibronectin in culture medium consisting of M199 base supplemented with 10% heat-inactivated Fetal Bovine Serum, 10 mM HEPES, 20 mM glucose, 2 mM L-glutamine, 1.5 ? M vitamin B-12, and 50 U/ml penicillin. On the second day of culture, the serum concentration of the medium was reduced to 2%, and the medium was changed every 48 hours thereafter.
Adenovirus preparation and infection. Replication-defective recombinant adenoviruses expressing GFP and either HA-Creb312(FL) or HA-Creb312(N) under the control of CMV in bicistronic cassettes were generated using the AdEasy XL system (Stratagene). Briefly, HA-Creb312(FL) or HA-Creb312(N) were subcloned into the adenovirus shuttle vector pAdTrack-CMV (generous gift by Bert Vogelstein, Ref), and these constructs used for the generation of Ad.Creb312(FL) or Ad.Creb312(N), respectively, according to manufacturer's instructions. Adenoviral shuttle constructs for the expression of miRNAs against rat ILK, rat FAK, rat Creb312 under the control of hCMV were obtained by subcloning the XbaI/HindIII fragments of the respective miRNA expression constructs in pcDNA6-GW/EmGFP-miR (Invitrogen) into pShuttle (Stratagene). The recombinant adenoviruses were concentrated and purified by CsCl gradient ultracentrifugation, and the virus titer was determined through plaque assay.
NRVM were transduced with adenovirus at 5 moi (multiplicity of infection) in serum-free M199 for 90 min and maintained for 48 h in M-199/2% FCS before mechanical stretch, hypoxia experiments or treatment with chemicals.
Treatment with chemical ER stressors, cardiac hypertrophic agonists, hypoxic stress. 5×10^5 NRVM were plated in 6 well plates, transduced with Ad.Creb312(FL) and treated 48 h afterwards with tunicamycin (Tm), thapsigargin (Tg), brefeldin A (BFA) or DTT (1 mM) for 30 min and harvested for immunoblot analyses. Alternatively, NRVM were treated with phenylephrine, angiotensin II, endothelin or isoproterenol for 24 h. For hypoxic stress, 5×10^5 NRVM were plated in 6 well plates and switched from 20% O2/5% CO2 to 0.1% O2/5% CO2 for the indicated times.
Immunoprecipitation and Immunoblot. For immunoprecipitation, 10 μg pcDNA3/3xFlag-Creb312(N) were transfected into COS7 cells with Fugene HD (Roche). 48 h later, cells were washed once with PBS, harvested and lysed in 50 mM Tris-HCl pH 7.4, 150 mM NaCl, 1% Triton X-100 and Complete Protease Inhibitor (Roche) on ice. After centrifugation at 13000 rpm, 30 min, 4C, the supernatant was used for subsequent experiments. Embryonic hearts of various stages were homogenized in ice-cold PBS with a Rotor-Stator Homogenizer, and nuclear extracts were prepared from the cell pellets using the NE-PER Nuclear and Cytoplasmic Extraction Reagents (Pierce). Protein concentrations were determined with the Protein Assay Dye Reagent (Bio-Rad). 1.8 mg 3× Flag-Creb312(N) protein extract and 25 μg heart nuclear extract were rotated with 40 μl anti-Flag M2 Affinity gel (Sigma) at 4C over night. […]

BNP promoter region = assay: BNP promoter regulated luciferase gene expression assay; assay type: cell-based; conditions: for BNP regulated luciferase gene expression: 10 ng DNA
Text: (§1) FIGS. 8A-8D show the nuclear form of Creb312 activates BNP regulated luciferase gene expression.

ANF promoter region = assay: ANF promoter regulated luciferase gene expression assay; assay type: cell-based; conditions: 700 bp promoter region of ANF; 50 ng DNA; FIG. 8B
Text: as §1

[3] = NRVM expressing HA-Creb312(FL), 24 h exposure to hypertrophic agonists, FIG. 4D
[4] = NRVM transduced with Ad.Creb312(FL), ER stress-inducing chemicals, within one hour, Western Blot anti-HA

Molecule: Oc1c2ccccc2c2c3c(cccc13)N=N2 [SP600125]
effect on formation of the proteolytically cleaved, nuclear form of Creb312 in response to mechanical stretch (Creb312 [1]): did not inhibit

Molecule: CC(C)(C)n1nc(-c2ccc(Cl)cc2)c2c(N)ncnc21 [PP2]
effect on formation of the proteolytically cleaved, nuclear form of Creb312 in response to mechanical stretch (Creb312 [1]): did not show any effect; also recorded: did not inhibit

Molecule: CNC[C@H](O)c1cccc(O)c1 [phenylephrine]
proteolytic cleavage of Creb312 (formation of the nuclear form) (Creb312 [2]; [3]): most strongly induced; also recorded: formation of the proteolytically cleaved, nuclear form of Creb312

Molecule: CC[C@H](C)[C@H](NC(=O)[C@H](CC(=O)O)NC(=O)[C@H](CC(C)C)NC(=O)[C@H](Cc1c[nH]cn1)NC(=O)[C@@H]1CSSC[C@H](N)C(=O)N[C@@H](CO)C(=O)N[C@H]2CSSC[C@H](NC(=O)[C@H](CCC(=O)O)NC(=O)[C@H](CCCCN)NC(=O)[C@H](CC(=O)O)NC(=O)[C@H](CCSC)NC(=O)[C@H](CC(C)C)NC(=O)[C@H](CO)NC(=O)[C@H](CO)NC2=O)C(=O)N[C@@H](C(C)C)C(=O)N[C@@H](Cc2ccc(O)cc2)C(=O)N[C@@H](Cc2ccccc2)C(=O)N1)C(=O)N[C@H](C(=O)N[C@@H](Cc1c[nH]c2ccccc12)C(=O)O)[C@@H](C)CC [endothelin-1]
proteolytic cleavage of Creb312 (formation of the nuclear form) (Creb312 [2]; [3]): formation of the proteolytically cleaved, nuclear form of Creb312

Molecule: angiotensin-2 (DRVYIHPF; Angiotensin-2; UniProt P01019 25-32, looked up) [hypertrophic agonist]
proteolytic cleavage of Creb312 (formation of the nuclear form) (Creb312 [2]; [3]): formation of the proteolytically cleaved, nuclear form of Creb312

Molecule: COc1cccc(-c2cc(=O)c3ccccc3o2)c1N [PD98059]
effect on formation of the proteolytically cleaved, nuclear form of Creb312 in response to mechanical stretch (Creb312 [1]): did not show any effect; also recorded: did not inhibit

Molecule: CC(C)NCC(O)c1ccc(O)c(O)c1 (centres unmarked) [isoproterenol]
proteolytic cleavage of Creb312 (formation of the nuclear form) (Creb312 [2]; [3]): most strongly induced; also recorded: formation of the proteolytically cleaved, nuclear form of Creb312

Molecule: C/C=C(/C)C(=O)O[C@H]1C(C)=C2[C@H]([C@@H]1OC(=O)CCCCCCC)[C@@](C)(OC(C)=O)C[C@H](OC(=O)CCC)[C@@]1(O)[C@H]2OC(=O)[C@@]1(C)O [thapsigargin]
proteolytic cleavage of Creb312 (formation of the nuclear form) (Creb312 [2]; [4]): caused proteolytic cleavage of Creb312

Molecule: O[C@H](CS)[C@H](O)CS (racemic) [DTT, dithiothreitol]
proteolytic cleavage of Creb312 (formation of the nuclear form) (Creb312 [2]; [4]): to a lesser extend

Molecule: O=c1[nH]c2ccccc2n1C1CCN(Cc2ccc(-c3nc4cc5[nH]cnc5cc4nc3-c3ccccc3)cc2)CC1 [Akt1/2]
effect on formation of the proteolytically cleaved, nuclear form of Creb312 in response to mechanical stretch (Creb312 [1]): complete ablation
effect on formation of the proteolytically cleaved, nuclear form of Creb312 in response to mechanical stretch (Creb312 [1]; listed as Akt1/2 Inh): completely inhibited

Molecule: CCCC(=O)Nc1ncnc2c1ncn2[C@@H]1O[C@@H]2COP(=O)(O)O[C@H]2[C@H]1OC(=O)CCC [dbcA]
formation of nuclear Creb312 in response to cAMP treatment (Creb312 [2]; NRVM, data not shown): nuclear Creb312 is formed

Molecule: N#CC(=C(/N)Sc1ccccc1N)/C(C#N)=C(\N)Sc1ccccc1N [U0126]
effect on formation of the proteolytically cleaved, nuclear form of Creb312 in response to mechanical stretch (Creb312 [1]): did not show any effect; also recorded: did not inhibit

Molecule: C[S+]([O-])c1ccc(-c2nc(-c3ccncc3)c(-c3ccc(F)cc3)[nH]2)cc1 (centres unmarked) [SB203580]
effect on formation of the proteolytically cleaved, nuclear form of Creb312 in response to mechanical stretch (Creb312 [1]): did not show any effect; also recorded: did not inhibit

Molecule: C[C@H]1CCC/C=C/[C@@H]2C[C@H](O)C[C@H]2[C@H](O)/C=C/C(=O)O1 [brefeldinA]
proteolytic cleavage of Creb312 (formation of the nuclear form) (Creb312 [2]; [4]): caused proteolytic cleavage of Creb312

Molecule: tunicamycin
proteolytic cleavage of Creb312 (formation of the nuclear form) (Creb312 [2]; [4]): to a lesser extend

BNP regulated luciferase gene expression (BNP promoter region; 2 kb promoter region of BNP, FIG. 8C): induced
BNP regulated luciferase gene expression (BNP promoter region; 135 bp promoter region of BNP, FIG. 8D): induced
fold activation of luciferase gene expression (BNP promoter region; (−135 to −115) BNP promoter region, 200 ng DNA, FIG. 10C): three fold
ANF regulated luciferase gene expression (ANF promoter region): induced
B1: Creb312(N): nuclear form of Creb312, residues 1-376 of the full length Creb312 (SEQ ID NO: 3) (protein, listed as Homo sapiens)
chain: MEVLESGEQGVLQWDRKLSELSEPGDGEALMYHTHFSELLDEFSQNVLGQLLNDPFLSEKSVSMEVEPSPTSPAPLIQAEHSYSLCEEPRAQSPFTHITTSDSFNDDEVESEKWYLSTDFPSTSIKTEPVTDEPPPGLVPSVTLTITAISTPLEKEEPPLEMNTGVDSSCQTIIPKIKLEPHEVDQFLNFSPKEAPVDHLHLPPTPPSSHGSDSEGSLSPNPRLHPFSLPQTHSPSRAAPRAPSALSSSPLLTAPHKLQGSGPLVLTEEEKRTLIAEGYPIPTKLPLSKSEEKALKKIRRKIKNKISAQESRRKKKEYMDSLEKKVESCSTENLELRKKVEVLENTNRTLLQQLQKLQTLVMGKVSRTCKLAGTQT
